Measurements as given in paper PMC9540496 (Clinical Pharmacology and Therapeutics, 2022).
Marks after values point to notes of the source that are not given here. Each block holds one molecule with its values, some of them ahead of it.

How the values were obtained:
[1] = Phase I crossover DDI study: dabigatran etexilate; assay type: in vivo, human
[2] = Endogenous biomarkers NMN; assay type: in vivo, human; settings: for Tmax: median (range)
clinical = settings: both, human, plasma, oral, 500 mg
[3] = Phase I crossover DDI study: metformin; settings: metformin 500 mg alone; median (range)
[4] = Phase I crossover DDI study: rosuvastatin; assay type: in vivo, human
[5] = cited from earlier work
P‐gp = assay: Anticipated effect of abrocitinib on digoxin, not formally evaluated; settings: assuming complete P‐gp inhibition
[6] = Safety across the three phase I pharmacokinetic studies; assay type: in vivo, human
[7] = Static perpetrator DDI risk assessment; settings: for Theoretical gut concentration (Igut): 200 mg/250 mL
[8] = both, human, plasma, oral, 75 mg
[9] = dabigatran etexilate 75 mg + abrocitinib 200 mg vs alone
[10] = dabigatran etexilate 75 mg ± abrocitinib 200 mg single dose
[11] = rosuvastatin 10 mg ± abrocitinib 200 mg QD

SMILES: [H]/N=C(/N)c1ccc(NCc2nc3cc(C(=O)N(CCC(=O)O)c4ccccn4)ccc3n2C)cc1 [Dabigatran, dabigatran]
- increase of plasma exposure on co‐administration with abrocitinib ([1]; abstract statement): ~ 50%
- Cmax [1, 8]: 30.2 ng/mL
- half-life [1, 8]: 8.93 ± 2.28 h
- increase of AUCinf on co‐administration with abrocitinib [1, 9]: 53%
- increase of Cmax on co‐administration with abrocitinib [1, 9]: 40%
- AUCinf ratio of abrocitinib + substrate vs. substrate alone AGm (90% CI) [1, 10]: 1.53 (1.09–2.15)
- Cmax ratio of abrocitinib + substrate vs. substrate alone AGm (90% CI) [1, 10]: 1.40 (0.92–2.13)

SMILES: C[C@H]1O[C@@H](O[C@H]2[C@@H](O)C[C@H](O[C@H]3[C@@H](O)C[C@H](O[C@H]4CC[C@@]5(C)[C@H](CC[C@@H]6[C@@H]5C[C@@H](O)[C@]5(C)[C@@H](C7=CC(=O)OC7)CC[C@]65O)C4)O[C@@H]3C)O[C@@H]2C)C[C@H](O)[C@@H]1O [digoxin]
- absolute bioavailability [5]: 75–78%

SMILES: CCCN(CCC)S(=O)(=O)c1ccc(C(=O)O)cc1 [probenecid]
- decrease in CLr of rosuvastatin or furosemide in the presence of probenecid ([5]; OAT3 index inhibitor, approximate five‐fold): ~80%

SMILES: C=C[C@H]1C[N@@]2CC[C@H]1C[C@@H]2[C@@H](O)c1ccnc2ccc(OC)cc12 [quinidine]
- increase of dabigatran exposures ([5]; P‐gp interaction, dabigatran labeling): 50–60%

Further lines, with some results ahead:

- AUC24 ratio of abrocitinib + metformin vs. metformin alone AGm (90% CI) ([2]; IBC): 0.95 (0.85–1.05) ^c
- Cmax ratio of abrocitinib + metformin vs. metformin alone AGm (90% CI) ([2]; IBC): 0.95 (0.85–1.06) ^c
- AUC24 ([2]; IBC in plasma, metformin 500 mg alone, geometric mean (geometric %CV), N = 12): 1187 (56) ng•hour/mL
- Cmax ([2]; IBC, abrocitinib 200 mg + metformin 500 mg, geometric mean (geometric %CV)): 56.6 (55) ng/mL
- Tmax ([2]; IBC, abrocitinib 200 mg + metformin 500 mg): 14.0 (0.00–23.8) hour
- effect of abrocitinib co‐administration with metformin on AUC24 or Cmax ([2]; IBC, compared with metformin alone): did not alter
- Cmax ([2]; IBC, metformin 500 mg alone, geometric mean (geometric %CV)): 59.7 (56) ng/mL
- Tmax ([2]; IBC, metformin 500 mg alone): 16.0 (0.00–23.8) hour
SMILES: CC(C)C(=O)O[C@H](CC(=O)[O-])C[N+](C)(C)C [IBC, isobutyryl‐L‐carnitine]

- AUC(0-inf) (clinical): 5200 ng·h/mL
- Cmax (clinical): 721 ng/mL
- Tmax [3]: 4.00 (1.00–4.00) hour
SMILES: CN(C)C(=N)N=C(N)N [Metformin, metformin]

- plasma exposure and CLr on co‐administration with abrocitinib ([4]; 90% CIs within acceptance range of 80–125%): unaffected
- AUC(0-inf) ([4]; both, human, plasma, oral, 10 mg): 57.6 ng·h/mL
- CL renal ([4]; both, human, urine and plasma, oral, 10 mg): 243 mL/min
- Cmax ([4]; rosuvastatin 10 mg alone, geometric mean (geometric %CV)): 5.38 (53) ng/mL
- AUCinf ratio of abrocitinib + substrate vs. substrate alone AGm (90% CI) [4, 11]: 1.02 (0.93–1.12) ^c
- CLr ratio of abrocitinib + substrate vs. substrate alone AGm (90% CI) [4, 11]: 0.91 (0.83–1.01) ^c
- Cmax ratio of abrocitinib + substrate vs. substrate alone AGm (90% CI) [4, 11]: 0.99 (0.86–1.14) ^c
SMILES: CC(C)c1nc(N(C)S(C)(=O)=O)nc(-c2ccc(F)cc2)c1/C=C/[C@@H](O)C[C@@H](O)CC(=O)O [Rosuvastatin, rosuvastatin]
- increase of rosuvastatin AUC with ABCG2 421A/A vs. wild‐type ([5]; ABCG2 (BCRP) polymorphism): ~ 2 fold
- parent drug recovered in urine ([5]; after oral dosing): 10%

- anticipated maximum increase in digoxin AUC (P‐gp): ≤ 30%
- absorption rate constant (ka) [7]: 0.067 min⁻¹
- fraction absorbed (fafg) [7]: 0.91
- Theoretical gut concentration (Igut) [7]: 0.8 mg/mL
- Theoretical gut concentration (Igut) ([7]; MW 323.4): 2.47 mM
- 0.1 × molar dose/250 mL ([7]; cutoff for intestinal transporters, 200 mg dose): 247 µM
- 50 × Cmax,u ([7]; cutoff for systemic transporters, unbound steady-state Cmax): 65 µM
- Theoretical liver inlet concentration (Iin,max,u) ([7]; fu × (Cmax + ((fafg × ka × Dose/Qh)/B/P))): 9.1 µM
SMILES: CCCS(=O)(=O)N[C@H]1C[C@@H](N(C)c2ncnc3[nH]ccc23)C1 [abrocitinib, Abrocitinib]
- serious or severe adverse events ([6]; all three pharmacokinetic studies, abrocitinib 200 mg with probe drugs): No serious or severe adverse events
- tolerability ([6]; co‐administered with a single oral dose of dabigatran etexilate, rosuvastatin, or metformin, healthy volunteers): well‐tolerated
